Like-named read-outs stand apart in the source and are kept apart here. Marks after values point to notes of the source that are not given here. Where only a bound is given, the exact number is not on record here.

Experimental findings from patent US11950596B2, “Methods of protecting seeds from oxidants and microorganisms” (The United States of America, as represented by the …, priority 2020, dated 2024) are described below.

This test concerns A. flavus 3357. Kind of test: Heat-sensitizing antimicrobial bioassay (MFC) in A. flavus 3357. It counts as cell-based, Aspergillus flavus. Conditions: for MFC: read-out: minimum fungicidal concentration (MFC; >99.999% fungal death). The protocol: Antimicrobial bioassay: The heat-sensitizing effect of twenty-eight compounds (phenolic derivatives, alkyl gallates, other food additives) (0.025, 0.050, 0.075, 0.100, 0.200, 0.300, 0.400, 0.500, 0.600 or 0.700 mM) and six drugs/fungicides (1, 2, 4, 8, 16, 32, 64 ppm) (Table 2) were examined using A. flavus 3357. Two hundred μL of fungal spores (1.5×10^5 to 2.1×10^5 CFU) dispersed in PBS was transferred into individual microfuge tube (1.5 mL vol.), where (1) “control” tube contained DMSO only, while (2) “treatment” tube contained test chemical/drug at respective concentration. The tubes were then treated with mild heat (57.5° C.) or maintained at room temperature (RT; 22.0° C.) for 90 seconds. After treatments, entire volume (200 μL) from each microfuge tube was spread onto fresh recovery PDA, and plates were incubated at respective temperatures. Fungal growth/survival was monitored after 48 hrs of incubation.
As described in A. flavus 3357 test (see above), microfuge tubes were treated with mild heat (57.5° C.) or maintained at RT (22.0° C.) (90 seconds). After heat treatments, entire volume (200 μL) from each microfuge tube was spread onto fresh recovery LB agar (for bacteria) or PDA (for fungi), and plates were incubated at the optimum temperature for respective microorganisms (i.e., 35° C. for Aspergillus, 37° C. for E. coli, 28° C. for Penicillium/A. tumefaciens, respectively). The growth/survival of test microorganisms were monitored after 48 to 72 hrs of incubation.
Determination of optimum temperature and time duration for screening heat sensitizers in A. flavus 3357: For the determination of the optimum temperature and time points for screening heat sensitizers, fungal (A. flavus 3357) survivability was tested by exposing fungal spores (1.5×10^5 to 2.1×10^5 CFU) to different temperatures (50, 55, 57.5, 60, 65° C.) and time points (0.5, 1.0, 1.5, 2.0, 2.5, 3.0, 3.5, 4.0, 4.5, 5.0 min).

The mark [1] stands for this setting: Aspergillus flavus, 3357, 0.025 h, 22.0° C. (RT), 90 seconds, PBS.
The mark [2] stands for this setting: Aspergillus flavus, 3357, 0.025 h, 57.5° C. mild heat, 90 seconds, PBS.
The mark [3] stands for this setting: 57.5° C. mild heat, 90 seconds, PBS.

`O=Cc1cccc(O)c1O` [2,3-Dihydroxybenzaldehyde]: the MFC under setting [1] is greater than 700 µM and the MFC under setting [2] was greater than 700 µM.
`O=C(O)c1ccc(O)cc1O` [2,4-Dihydroxybenzoic acid]: the MFC is greater than 700 µM under setting [1] and greater than 700 µM under setting [2].
In the case of `COc1ccc(C=O)c(O)c1` [2-Hydroxy-4-methoxybenzaldehyde], the MFC reads like this: under setting [1], greater than 700 µM; under setting [2], greater than 700 µM.
For `Cc1ccc(C=O)c(O)c1` [2-Hydroxy-4-methylbenzaldehyde], the MFC reads like this: under setting [1], greater than 700 µM; under setting [2], greater than 700 µM.
Consider `O=C(O)c1ccc(O)c(O)c1` [3,4-Dihydroxybenzoic acid], for which the MFC is greater than 700 µM under setting [3] and greater than 700 µM under setting [1].
Turning to `O=Cc1ccccc1` [Benzaldehyde], the MFC under setting [3] was greater than 700 µM and the MFC under setting [1] was greater than 700 µM.
`O=C(O)c1ccccc1` [Benzoic acid]: the MFC under setting [3] is greater than 700 µM and the MFC under setting [1] is greater than 700 µM.
Take `CCCCOC(=O)c1cc(O)c(O)c(O)c1` [Butyl gallate]: the MFC by setting is: under setting [1], greater than 700 µM; under setting [2], greater than 700 µM.
As for `Cc1ccc(C(C)C)cc1O` [Carvacrol], the MFC was greater than 700 µM under setting [3] and greater than 700 µM under setting [1].
With `CC[C@H](C)C[C@H](C)CCCCCCCCC(=O)N[C@H]1C[C@@H](O)[C@@H](NCCN)NC(=O)[C@@H]2[C@@H](O)CCN2C(=O)[C@H]([C@H](O)CCN)NC(=O)[C@H]([C@H](O)[C@@H](O)c2ccc(O)cc2)NC(=O)[C@@H]2C[C@@H](O)CN2C(=O)[C@H]([C@@H](C)O)NC1=O` [Caspofungin], the “minimum fungicidal concentration (MFC; >99.999% fungal death)” value runs as follows: (22.0° C. (RT), 90 seconds, PBS) >64 μg/mL; ppm; under setting [3], >64 μg/mL; ppm.
Regarding `O=CC=Cc1ccccc1` [Cinnamaldehyde], the MFC is, setting by setting: under setting [3], greater than 700 µM; under setting [1], greater than 700 µM.
For `O=C(O)C=Cc1ccccc1` [Cinnamic acid], the MFC under setting [1] was greater than 700 µM and the MFC under setting [2] was greater than 700 µM.
Consider `Cc1cc(C2CC2)nc(Nc2ccccc2)n1` [Cyprodinil], for which the “minimum fungicidal concentration (MFC; >99.999% fungal death)” value was >64 μg/mL; ppm (22.0° C. (RT), 90 seconds, PBS) and >64 μg/mL; ppm under setting [3].
As for `CCCCCCCCCCOC(=O)c1cc(O)c(O)c(O)c1` [Decyl gallate], the MFC is, setting by setting: (22.0° C. (RT), 90 seconds, PBS) greater than 700 µM; under setting [1], greater than 700 µM; under setting [2], 200 µM. Further, the “minimum fungicidal concentration (MFC; >99.999% fungal death)” value under setting [3] is on record as 200* μM.
Turning to `CCOC(=O)c1cc(O)c(O)c(O)c1` [Ethyl gallate], the MFC is greater than 700 µM under setting [1] and greater than 700 µM under setting [2].
In the case of `N#Cc1c[nH]cc1-c1cccc2c1OC(F)(F)O2` [Fludioxonil], the “minimum fungicidal concentration (MFC; >99.999% fungal death)” value is, setting by setting: (22.0° C. (RT), 90 seconds, PBS) >64 μg/mL; ppm; under setting [3], >64 μg/mL; ppm.
Regarding `O=C(O)c1cc(O)c(O)c(O)c1` [Gallate], the MFC was greater than 700 µM under setting [1] and greater than 700 µM under setting [2].
For the molecule `COc1ccccc1O` [Guaiacol], the MFC is greater than 700 µM under setting [1] and greater than 700 µM under setting [2].
Take `OO` [Hydrogen peroxide]: the MFC under setting [1] was greater than 700 µM and the MFC under setting [2] was greater than 700 µM.
In the case of `CCC(C)n1ncn(-c2ccc(N3CCN(c4ccc(OCC5COC(Cn6cncn6)(c6ccc(Cl)cc6Cl)O5)cc4)CC3)cc2)c1=O` (stereo not shown) [Itraconazole], the “minimum fungicidal concentration (MFC; >99.999% fungal death)” value (22.0° C. (RT), 90 seconds, PBS) is on record as 64 μg/mL; ppm and the “minimum fungicidal concentration (MFC; >99.999% fungal death)” value under setting [3] was >64 μg/mL; ppm.
On to `COC(=O)c1cc(O)c(O)c(O)c1` [Methyl gallate], for which the MFC is, setting by setting: under setting [1], greater than 700 µM; under setting [2], greater than 700 µM.
In the case of `CCCCCCCCCOC(=O)c1cc(O)c(O)c(O)c1` [Nonyl gallate], the MFC is greater than 700 µM (22.0° C. (RT), 90 seconds, PBS); greater than 700 µM under setting [1]; 400 µM under setting [2]. Under setting [3], the “minimum fungicidal concentration (MFC; >99.999% fungal death)” value is reported as 400* μM.
Regarding `CCCOC(=O)c1cc(O)c(O)c(O)c1` [Propyl gallate], the MFC runs as follows: under setting [1], greater than 700 µM; under setting [2], greater than 700 µM.
`COC(=O)N(OC)c1ccccc1COc1ccn(-c2ccc(Cl)cc2)n1` [Pyraclostrobin]: the “minimum fungicidal concentration (MFC; >99.999% fungal death)” value is on record as >64 μg/mL; ppm (22.0° C. (RT), 90 seconds, PBS) and >64 μg/mL; ppm under setting [3].
Consider `Cc1cc(C)nc(Nc2ccccc2)n1` [Pyrimethanil], for which the “minimum fungicidal concentration (MFC; >99.999% fungal death)” value is >64 μg/mL; ppm (22.0° C. (RT), 90 seconds, PBS) and >64 μg/mL; ppm under setting [3].
With `O=Cc1ccccc1O` [Salicylaldehyde], the MFC runs as follows: under setting [3], greater than 700 µM; under setting [1], greater than 700 µM.
Regarding `O=C(O)c1ccccc1O` [Salicyllic acid], where the note is “Aspergillus flavus, 3357, 0.025 h”, the MFC was greater than 700 µM.
With `CCCCCCCCCCCCOS(=O)(=O)[O-].[Na+]` [Sodium lauryl sulfate], the MFC reads like this: under setting [1], greater than 700 µM; under setting [2], greater than 700 µM.
Regarding `Cc1ccc(C(C)C)c(O)c1` [Thymol], the MFC reads like this: under setting [1], greater than 700 µM; under setting [2], greater than 700 µM.
On to `COc1cc(C(=O)O)ccc1O` [Vanillic acid], for which the MFC is, setting by setting: under setting [1], greater than 700 µM; under setting [2], greater than 700 µM.
As for `COc1cc(C=O)ccc1O` [Vanillin], the MFC was greater than 700 µM under setting [1] and greater than 700 µM under setting [2].
Turning to `COc1cc(CCC(C)=O)ccc1O` [Vanillylacetone], the MFC by setting is: under setting [1], greater than 700 µM; under setting [2], greater than 700 µM.
